In data set [1] the test system is Enterococcus faecalis 51299 VanB. In words: MIC, broth micro dilution. The note with it: Enterococcus faecalis, 51299VANB.
Description: (§2) According to CLSI guideline the Minimal Inhibitory Concentrations (MICs) of the prepared compounds were determined with the broth micro dilution method. After an overnight growth on 5% bovine blood agar plates at 35 °C bacterial strains were suspended in physiological saline in order to reach the density of 0.5 McFarland for inoculation. Stock solutions containing different concentrations of the substances were prepared in DMSO and H2O (1:1). These were twofold serially diluted from 256 to 0.5 mg/l in Mueller–Hinton broth, and 100 ml of each dilution was inoculated with 10 ml of each bacterial suspension.
The subject of data set [2] is MRSA (Methicillin Resistant Staphylococcus aureus). In words: MIC, broth micro dilution. Conditions: Staphylococcus aureus.
The subject of the next data set is Bacillus subtilis. In words: MIC, broth micro dilution.
For data set [3], the system named is MSSA (Methicillin Sensitive Staphylococcus aureus). Description: MIC, broth micro dilution. The note with it: Staphylococcus aureus.
Description: as §2
Another data set concerns SZ95 sebocytes. Description: Nile Red-assay, spontaneous sebaceous lipogenesis. It is filed as cell-based, human. Conditions: 48 h.
Data set [4] relates to Staphylococcus epidermidis biofilm forming. In words: MIC, broth micro dilution. Conditions: Staphylococcus epidermidis.
Another data set relates to SARS-CoV-2. In words: SARS-CoV-2 cytopathic effect (CPE) inhibition assay in Vero E6 cells (XTT). In kind it is cell-based. The note with it: Severe acute respiratory syndrome coronavirus 2, Vero C1008, 72 h; Vero E6 cells, 3 days post-infection, XTT.
Data set [5] has as its system Enterococcus faecalis 15 376 VanA. In words: MIC, broth micro dilution. Conditions: Enterococcus faecalis, 15376VANA.
Data set [6] concerns Staphylococcus epidermidis mecA. In words: MIC, broth micro dilution. The note with it: Staphylococcus epidermidis.
Description: as §2
The next data set deals with MDA-MB-231 cells. Description: Antiproliferative MTT assay, 72 h. It is filed as cell-based, human. In short, it runs like this: (§1)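 Cells seeded at 5000/well, grown overnight, then treated with 10 or 30 μM compound for 72 h. MTT added for 4 h, formazan dissolved in DMSO and read at 545 nm. Values are % proliferation inhibition versus untreated controls (0%), two experiments with five wells each.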

For a further data set, the system named is SiHa cells. In words: Antiproliferative MTT assay, 72 h. It is filed as cell-based, human. An outline of the steps:
as §1
A general note: Tetrazolium assays rely on reduction of a dye to a coloured formazan, in cell work by metabolically active cells.

A further data set relates to A2780 cells. Description: Antiproliferative MTT assay, 72 h. In kind it is cell-based, human. An outline of the steps: as §1
For the next data set, the system named is MCF7 cells. Description: Antiproliferative MTT assay, 72 h. It is filed as cell-based, human. In short, it runs like this:
as §1

The nature of a further data set: in vitro. The note with it: African green monkey.

Broadly, the EC50 is the concentration needed to bring the measured effect to its halfway point.

Molecules are shown by their SMILES. Converted amounts (≈) assume the structure as drawn.

Description for Bacillus subtilis: as §2

Take `C=C(C)[C@@H]1CCC(C)=C[C@H]1c1c(O)cc(CCCCC)cc1O` [Compound 1, (−)-Cannabidiol]: the MIC in [1] was determined as 4 µg/mL (≈ 12.7 µM); in [2], 4 µg/mL (≈ 12.7 µM); against Bacillus subtilis, 4 µg/mL (≈ 12.7 µM); in data set [3] it was 4 µg/mL (≈ 12.7 µM); in [4] it was 8 µg/mL (≈ 25.4 µM); in [5] it was 4 µg/mL (≈ 12.7 µM). Further, in data set [6], the MIC amounted to 8 µg/mL (≈ 25.4 µM). Moreover, in the data set on SZ95 sebocytes (30 μM), the “spontaneous, homeostatic sebaceous lipogenesis (lipid synthesis)” value was “significant decrease in the lipid synthesis”. In the data set on SZ95 sebocytes (≤ 10 μM), the “spontaneous, homeostatic sebaceous lipogenesis” value is “no effect”. This compound showed an EC50 in the data set with SARS-CoV-2 of 5.1 ± 0.99 µM. Besides, the inhibition at 30 µM with MDA-MB-231 cells (Homo sapiens, MDA-MB-231, 30 μM, read-out: inhibition of the proliferation) is approximately 90%; in the data set on SiHa cells (Homo sapiens, 30 μM, read-out: inhibition of the proliferation), approximately 90%; in the data set with A2780 cells (Homo sapiens, A2780, 30 μM, read-out: inhibition of the proliferation), approximately 90%; with MCF7 cells (Homo sapiens, MCF7, 30 μM, read-out: inhibition of the proliferation) it was approximately 90%. Moreover, the “inhibition of the proliferation (in words)” value in the data set on MDA-MB-231 cells (MDA-MB-231, 10 μM) is given as “negligible”; in the data set with SiHa cells (10 μM), “negligible”; with A2780 cells (A2780, 10 μM), “modest”; in the data set with MCF7 cells (MCF7, 10 μM), “modest”. For the same compound, the CC50 in the data set “in vitro” was determined as 12.1 ± 1.2 µM.

For `C=C(C)[C@@H]1CCC(C)=C[C@H]1c1c(O)cc(CCCCC)c(COCC)c1O` [Compound 9], the MIC was 8 µg/mL (≈ 21.5 µM) in data set [1]; more than 256 µg/mL in [2]; more than 256 µg/mL in the data set with Bacillus subtilis; more than 256 µg/mL in data set [3]; more than 256 µg/mL in data set [4]; 128 µg/mL (≈ 344 µM) in data set [5]. The MIC in [6] is more than 256 µg/mL. The “spontaneous, homeostatic sebaceous lipogenesis” value with SZ95 sebocytes (applied alone) is on record as “rather promote spontaneous, homeostatic sebaceous lipogenesis”. The compound also registered an EC50 with SARS-CoV-2 of 22 ± 3 µM. The “antiproliferative activity (in words)” value is “None of the other tested CBD analogs (9, 11, and 12) exhibited substantial antiproliferative activity” in the data set on MDA-MB-231 cells (MDA-MB-231, 10 and 30 μM); “None of the other tested CBD analogs (9, 11, and 12) exhibited substantial antiproliferative activity” in the data set on SiHa cells (10 and 30 μM); “None of the other tested CBD analogs (9, 11, and 12) exhibited substantial antiproliferative activity” with A2780 cells (A2780, 10 and 30 μM); “None of the other tested CBD analogs (9, 11, and 12) exhibited substantial antiproliferative activity” in the data set on MCF7 cells (MCF7, 10 and 30 μM). The same compound showed a CC50 in the data set “in vitro” of more than 100 µM.

For the origin of these results see publication PMC10638401, “Mannich-type modifications of (−)-cannabidiol and (−)-cannabigerol leading to new, bioactive derivatives” (Scientific Reports, 2023).
